Data on 52 compounds can be found in patent publication US8022209B2, “Substituted nitrogen-containing heteroaryl derivatives useful as modulators of the histamine H4 receptor” (Janssen Pharmaceutica NV, priority 2007, dated 2011).

SMILES strings stand for the structures. pKi: −log10 of the molar value.

In the assay the target is T1, human histamine H4 receptor (Homo sapiens, UniProt Q9H3N8).
T1 construct: expressed in transfected cells; host or cells: SK-N-MC cells or COS7 cells, transiently transfected with pH4R; cell membranes
T1 sequence (Q9H3N8 whole entry): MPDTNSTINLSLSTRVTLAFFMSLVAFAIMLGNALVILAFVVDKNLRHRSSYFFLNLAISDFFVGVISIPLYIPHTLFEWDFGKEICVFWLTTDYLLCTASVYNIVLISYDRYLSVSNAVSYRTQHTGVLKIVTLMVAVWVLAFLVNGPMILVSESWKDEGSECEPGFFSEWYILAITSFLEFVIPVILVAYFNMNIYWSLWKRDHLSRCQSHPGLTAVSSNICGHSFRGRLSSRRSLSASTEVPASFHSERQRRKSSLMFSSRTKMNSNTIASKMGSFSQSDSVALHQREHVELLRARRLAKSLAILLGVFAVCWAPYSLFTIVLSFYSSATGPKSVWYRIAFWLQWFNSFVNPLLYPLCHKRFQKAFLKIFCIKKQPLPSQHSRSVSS
Nature of the assay: Binding Assay on Recombinant Human Histamine H4 Receptor. The note with it: competition binding vs 3H-histamine (5 nM, KD 5 nM), membranes of SK-N-MC or COS7 cells transfected with human H4R; Cheng-Prusoff; average of results obtained. On the procedure: Binding Assay on Recombinant Human Histamine H4 Receptor
SK-N-MC cells or COS7 cells were transiently transfected with pH4R and grown in 150 cm^2 tissue culture dishes. Cells were washed with saline solution, scraped with a cell scraper and collected by centrifugation (1000 rpm, 5 min). Cell membranes were prepared by homogenization of the cell pellet in 20 mM Tris-HCl with a polytron tissue homogenizer for 10 sec at high speed. Homogenate was centrifuged at 1000 rpm for 5 min at 4° C. The supernatant was then collected and centrifuged at 20,000×g for 25 min at 4° C. The final pellet was resuspended in 50 mM Tris-HCl. Cell membranes were incubated with ^3H-histamine (5-70 nM) in the presence or absence of excess histamine (10,000 nM). Incubation occurred at room temperature for 45 min. Membranes were harvested by rapid filtration over Whatman GF/C filters and washed 4 times with ice-cold 50 mM Tris HCl. Filters were then dried, mixed with scintillant and counted for radioactivity. SK-N-MC or COS7 cells expressing human histamine H4 receptor were used to measure the affinity of binding of other compounds and their ability to displace ^3H-ligand binding by incubating the above-described reaction in the presence of various concentrations of inhibitor or compound to be tested. For competition binding studies using ^3H-histamine, Ki values were calculated, based on an experimentally determined KD value of 5 nM and a ligand concentration of 5 nM, according to Y. C.
On to `CN1CCN(c2ncnc(-c3cc(Cl)sc3Cl)n2)CC1` [compound 143, 2-(2,5-Dichloro-thiophen-3-yl)-4-(4-methyl-piperazin-1-yl)-[1,3,5]triazine], for which the pKi is 6.71. As to `Cc1ccc(-c2cc(N3CCN(C)CC3)ccn2)cc1F` [compound 31], the pKi is 7.12. With `CN1CCN(c2ncnc(-c3cc4ccccc4s3)n2)CC1` [compound 21, 2-Benzo[b]thiophen-2-yl-4-(4-methyl-piperazin-1-yl)-[1,3,5]triazine] the figure was 5.63. With `CN1CCN(c2ccnc(-c3cccc(-c4ccccc4)c3)c2)CC1` [compound 38] the figure was 7.28; with `CN1CCN(c2ncnc(-c3csc4ccccc34)n2)CC1` [compound 144, 2-Benzo[b]thiophen-3-yl-4-(4-methyl-piperazin-1-yl)-[1,3,5]triazine], 6.46; with `CN1CCN(c2ccnc(-c3ccoc3)c2)CC1` [compound 28], 7.60. With `Cc1nc(-c2sccc2Br)nc(N2CCN(C)CC2)n1` [compound 23, 2-(3-Bromo-thiophen-2-yl)-4-methyl-6-(4-methyl-piperazin-1-yl)-[1,3,5]triazine] the figure was 7.51; with `CN1CCN(c2ncnc(-c3cc(F)c(F)c(F)c3)n2)CC1` [compound 11, 2-(4-Methyl-piperazin-1-yl)-4-(3,4,5-trifluoro-phenyl)-[1,3,5]triazine], 8.15. `CN1CCN(c2ncnc(-c3ccc(-c4ccccn4)s3)n2)CC1` [compound 131, 2-(4-Methyl-piperazin-1-yl)-4-(5-pyridin-2-yl-thiophen-2-yl)-[1,3,5]triazine]: the pKi was < 5.00. In the case of `CN1CCN(c2ncnc(-c3ccccc3)n2)CC1` [compound 118, 2-(4-Methyl-piperazin-1-yl)-4-phenyl-[1,3,5]triazine] it was 6.89. In the case of `CN1CCN(c2ncnc(-c3cccc(C(F)(F)F)c3)n2)CC1` [compound 8, 2-(4-Methyl-piperazin-1-yl)-4-(3-trifluoromethyl-phenyl)-[1,3,5]triazine] it was 7.14; in that of `CN1CCN(c2ccnc(-c3ccco3)c2)CC1` [compound 27], 7.06. In the case of `CN1CCN(c2ncnc(-c3cccc4ccccc34)n2)CC1` [compound 112, 2-(4-Methyl-piperazin-1-yl)-4-naphthalen-1-yl-[1,3,5]triazine] it was 5.82; in that of `CN1CCN(c2ccnc(-c3ccc(F)c(F)c3)c2)CC1` [compound 34], 7.05.

In the case of `CN1CCN(c2ncnc(-c3sccc3Br)n2)CC1` [compound 15, 2-(3-Bromo-thiophen-2-yl)-4-(4-methyl-piperazin-1-yl)-[1,3,5]triazine], the pKi is 8.70. With `CN1CCN(c2ncnc(-c3ccoc3)n2)CC1` [compound 6, 2-Furan-3-yl-4-(4-methyl-piperazin-1-yl)-[1,3,5]triazine] the figure was 6.94; with `CN1CCN(c2ncnc(-c3ccc(F)cc3Cl)n2)CC1` [compound 138, 2-(2-Chloro-4-fluoro-phenyl)-4-(4-methyl-piperazin-1-yl)-[1,3,5]triazine], 7.00. In the case of `CN1CCN(c2ncnc(-c3ccsc3)n2)CC1` [compound 1, 2-(4-Methyl-piperazin-1-yl)-4-thiophen-3-yl-[1,3,5]triazine] it was 7.36. With `CN1CCN(c2ccnc(-c3csc(C#N)c3)c2)CC1` [compound 129] the figure was 6.35; with `CN1CCN(c2ncnc(-c3cc(F)cc(F)c3)n2)CC1` [compound 137, 2-(3,5-Difluoro-phenyl)-4-(4-methyl-piperazin-1-yl)-[1,3,5]triazine], 7.11; with `Cc1cscc1-c1cc(N2CCN(C)CC2)ccn1` [compound 29], 7.19.

Take `CN1CCN(c2ncnc(-c3ccc(-c4ccccc4)cc3)n2)CC1` [compound 116, 2-Biphenyl-4-yl-4-(4-methyl-piperazin-1-yl)-[1,3,5]triazine]: the pKi is < 5.00.

In the case of `CN1CCN(c2ncnc(-c3cccc(-c4ccccc4)c3)n2)CC1` [compound 108, 2-Biphenyl-3-yl-4-(4-methyl-piperazin-1-yl)-[1,3,5]triazine], the pKi is 5.72. With `CN1CCCN(c2cc(-c3cccs3)ncn2)CC1` [compound 68] the figure was 6.40.

Turning to `CN1CCN(c2ncnc(-c3ccc(Cl)c(Cl)c3)n2)CC1` [compound 14, 2-(3,4-Dichloro-phenyl)-4-(4-methyl-piperazin-1-yl)-[1,3,5]triazine], the pKi is 7.52.

As for `Cc1ccc(-c2ncnc(N3CCN(C)CC3)n2)cc1` [compound 4, 2-(4-Methyl-piperazin-1-yl)-4-p-tolyl-[1,3,5]triazine], the pKi was 7.12. In the case of `CN1CCN(c2ccnc(-c3sccc3Cl)c2)CC1` [compound 148], the pKi was 6.97. With `Cc1ccc(-c2cc(N3CCN(C)CC3)ccn2)cc1` [compound 32] the figure was 6.89. In the case of `CN1CCN(c2ccnc(-c3cccc(O)c3)c2)CC1` [compound 33] it was 6.24; in that of `Cc1nc(-c2cc(F)c(F)c(F)c2)nc(N2CCN(C)CC2)n1` [compound 147, 2-Methyl-4-(4-methyl-piperazin-1-yl)-6-(3,4,5-trifluoro-phenyl)-[1,3,5]triazine], 6.71. As for `CN1CCN(c2ccnc(-c3ccsc3)c2)CC1` [compound 26], the pKi is 7.43.

With `CN1CCN(c2ccnc(-c3cccc(Cl)c3Cl)c2)CC1` [compound 35], the pKi is 6.89. In the case of `Cc1ccsc1-c1ncnc(N2CCN(C)CC2)n1` [compound 136] it was 7.10. For `CN(C)CCN(C)c1ccnc(-c2ccsc2)c1` [compound 41], the pKi is 5.59. With `CN1CCN(c2ccnc(-c3ccc(F)c(Cl)c3)c2)CC1` [compound 30] the figure was 6.86; with `CN1CCN(c2ncnc(-c3ccc(F)cc3F)n2)CC1` [compound 122, 2-(2,4-Difluoro-phenyl)-4-(4-methyl-piperazin-1-yl)-[1,3,5]triazine], 7.03; with `CN1CCN(c2ncnc(-c3cc(Cl)cs3)n2)CC1` [compound 151, 2-(4-Chloro-thiophen-2-yl)-4-(4-methyl-piperazin-1-yl)-[1,3,5]triazine], 6.86. In the case of `CN1CCN(c2ncnc(-c3ccc(Cl)nc3)n2)CC1` [compound 16, 2-(6-Chloro-pyridin-3-yl)-4-(4-methyl-piperazin-1-yl)-[1,3,5]triazine] it was 7.30.

As to `Cc1ccsc1-c1ncnc(N2CCN(C)CC2)n1` [compound 140, 2-(4-Methyl-piperazin-1-yl)-4-(3-methyl-thiophen-2-yl)-[1,3,5]triazine], the pKi was 7.28. In the case of `CN1CCN(c2ncnc(-c3ccc(F)cc3)n2)CC1` [compound 12, 2-(4-Fluoro-phenyl)-4-(4-methyl-piperazin-1-yl)-[1,3,5]triazine] it was 7.46; in that of `CN1CCN(c2ncnc(-c3ccc(Br)cc3)n2)CC1` [compound 10, 2-(4-Bromo-phenyl)-4-(4-methyl-piperazin-1-yl)-[1,3,5]triazine], 7.44; in that of `CN1CCN(c2ncnc(-c3sccc3Cl)n2)CC1` [compound 17, 2-(3-Chloro-thiophen-2-yl)-4-(4-methyl-piperazin-1-yl)-[1,3,5]triazine], 8.10. With `Cc1cc(-c2ncnc(N3CCN(C)CC3)n2)c(C(F)(F)F)o1` [compound 22, 2-(4-Methyl-piperazin-1-yl)-4-(5-methyl-2-trifluoromethyl-furan-3-yl)-[1,3,5]triazine] the figure was 6.12. With `CN1CCN(c2ncnc(-c3ccc(Br)s3)n2)CC1` [compound 18, 2-(5-Bromo-thiophen-2-yl)-4-(4-methyl-piperazin-1-yl)-[1,3,5]triazine] the figure was 7.43. With `CN1CCCN(c2ncnc(-c3sccc3Br)n2)CC1` [compound 24, 1-[4-(3-Bromo-thiophen-2-yl)-[1,3,5]triazin-2-yl]-4-methyl-[1,4]diazepane], the pKi was 6.57.

In the case of `CN1CCN(c2ncnc(-c3cc(Br)cs3)n2)CC1` [compound 9], the pKi was 7.66. In the case of `CN1CCN(c2ncnc(-c3ccc(Cl)s3)n2)CC1` [compound 25, 2-(5-Chloro-thiophen-2-yl)-4-(4-methyl-piperazin-1-yl)-[1,3,5]triazine] it was 7.18; in that of `CNC1CCN(c2ccnc(-c3ccsc3)c2)C1` (stereo not shown) [compound 66], 6.67. Regarding `CN1CCCN(c2ccnc(-c3ccsc3)c2)CC1` [compound 39], the negative-log Ki (pKi) is 6.36. With `CN1CCN(c2ncnc(-c3ccc([N+](=O)[O-])cc3)n2)CC1` [compound 121, 2-(4-Methyl-piperazin-1-yl)-4-(4-nitro-phenyl)-[1,3,5]triazine] the figure was 6.97; with `CN1CCN(c2ncnc(-c3cccc(C#N)c3)n2)CC1` [compound 111, 3-[4-(4-Methyl-piperazin-1-yl)-[1,3,5]triazin-2-yl]-benzonitrile], 5.70. With `CN1CCN(c2ncnc(-c3cccs3)n2)CC1` [compound 2, 2-(4-Methyl-piperazin-1-yl)-4-thiophen-2-yl-[1,3,5]triazine] the figure was 7.12.

Usually pKi stands for the Ki on a negative log10 scale, so that one unit is a factor of ten.
